Literature values, collected in US20040167355A1, “Hydrocarbon products and methods of preparing hydrocarbon products” (priority 2003, published 2004).

Assays:
[1] = 1% solution of the sodium salt of the surfactant
[2] = 25° C.; 450 ppm surfactant, 420 ppm hardness (3:1 Ca++:Mg++)

SMILES | Krafft temperature [1] [°C] | loss of surfactant in hard water [2] [%]
CCCCCCCCCCC(C)c1ccc(S(=O)(=O)O)cc1 (stereo not shown) [2-Phenyl Dodecyl Benzene Sulfonate] | 36 | 100
CCCCCCCC(C)CCC(C)c1ccc(S(=O)(=O)O)cc1 (stereo not shown) [5-Methyl-2-Phenyl Dodecyl Benzene Sulfonate] | 16 | 5
